Results: paper PMC9489211, “Regulation of pulmonary surfactant by the adhesion GPCR GPR116/ADGRF5 requires a tethered agonist-mediated activation mechanism” (eLife, 2022)
Read-outs that look alike come from different tables or passages of the source. Blank lines part the entries; values can stand above or below the molecule they belong to. Where a SMILES comes first, the peptide text is derived from it. Where no end group is shown, it is not given here. [ ]: non-standard residue; d: D form. Nle = CCCC[C@H](N)C(=O)O

Experiments:
[1] = biological target: T1, full-length hGPR116 (HEK293 clone A6) (Homo sapiens, UniProt Q8IZF2); assay: Calcium transient assay, full-length hGPR116 stably expressed in HEK293 (clone A6); format: cell-based; settings: calcium transients, hFL clone A6, Figure 3-figure supplement 2 / Figure 7A
T1 construct: expressed in transfected cells
T1 sequence (Q8IZF2 22-1346): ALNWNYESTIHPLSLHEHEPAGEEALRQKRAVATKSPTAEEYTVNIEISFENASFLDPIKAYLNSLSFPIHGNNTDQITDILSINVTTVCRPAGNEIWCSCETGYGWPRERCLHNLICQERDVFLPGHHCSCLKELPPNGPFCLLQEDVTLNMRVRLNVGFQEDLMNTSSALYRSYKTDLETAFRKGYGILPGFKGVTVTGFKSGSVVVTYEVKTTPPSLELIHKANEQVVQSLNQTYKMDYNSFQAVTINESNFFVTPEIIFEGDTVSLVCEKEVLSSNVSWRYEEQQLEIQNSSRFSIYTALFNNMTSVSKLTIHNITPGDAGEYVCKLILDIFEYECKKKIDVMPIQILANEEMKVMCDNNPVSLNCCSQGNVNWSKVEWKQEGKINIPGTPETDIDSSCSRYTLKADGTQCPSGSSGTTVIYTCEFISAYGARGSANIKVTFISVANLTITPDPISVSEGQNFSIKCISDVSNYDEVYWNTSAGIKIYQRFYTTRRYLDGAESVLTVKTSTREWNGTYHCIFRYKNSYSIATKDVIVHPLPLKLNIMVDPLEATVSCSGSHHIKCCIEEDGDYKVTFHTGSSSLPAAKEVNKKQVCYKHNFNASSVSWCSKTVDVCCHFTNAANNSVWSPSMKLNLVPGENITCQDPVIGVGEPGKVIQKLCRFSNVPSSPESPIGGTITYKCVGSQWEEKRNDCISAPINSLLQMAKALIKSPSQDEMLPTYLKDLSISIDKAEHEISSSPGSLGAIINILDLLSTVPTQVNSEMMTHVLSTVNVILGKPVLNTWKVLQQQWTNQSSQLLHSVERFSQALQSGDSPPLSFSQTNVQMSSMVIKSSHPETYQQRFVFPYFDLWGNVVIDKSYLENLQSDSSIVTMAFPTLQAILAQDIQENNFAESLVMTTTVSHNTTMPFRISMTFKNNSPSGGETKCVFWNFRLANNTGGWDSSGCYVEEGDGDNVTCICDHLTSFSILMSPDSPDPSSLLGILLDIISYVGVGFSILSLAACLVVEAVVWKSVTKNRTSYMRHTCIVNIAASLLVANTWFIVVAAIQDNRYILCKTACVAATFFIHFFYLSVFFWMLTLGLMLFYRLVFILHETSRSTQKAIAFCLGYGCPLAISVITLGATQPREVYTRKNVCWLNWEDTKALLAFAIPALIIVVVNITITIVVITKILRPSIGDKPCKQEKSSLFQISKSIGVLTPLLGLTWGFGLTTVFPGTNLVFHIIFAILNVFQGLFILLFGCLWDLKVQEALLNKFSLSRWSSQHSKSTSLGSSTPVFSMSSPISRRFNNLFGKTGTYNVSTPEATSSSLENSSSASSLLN
Description: (§1) For some constructs, stable populations were generated by treating the cells with G418. After complete selection of resistant cells, these were used in assays. Stable HEK293 clones for full-length hGPR116 (clone A6) and mGPR116 (clone 3C) were described earlier ([Brown et al., 2017]).
(§2) HEK293 cells were seeded in 384-well plates (Greiner, #781946) at 30,000 cells/well. Medium was removed the following day and cells were loaded for 2 hr at 37°C, 5% CO2 with 20 µl Calcium 6 loading buffer (Molecular Devices, Cat# R8191): 1× HBSS (Gibco, Cat# 14065.049) containing 20 mM HEPES (Gibco, Cat#15630) and 2.5 mM probenecid (Sigma, Cat# P8761). Plates were then transferred to a FDSS7000 fluorescence plate reader (HAMAMATSU, Japan) and Ca^2+ responses were measured in real time using a CCD camera with excitation 480 nm/emission 540 nm. Prior to stimulation, baseline measurements were recorded over 5 s (Fmin). For stimulation, 20 µl of test compounds prepared 2× in HBSS containing 20 mM HEPES were dispensed. Fluorescence was read over 1–1.5 min. Maximum fluorescence (Fmax) was determined and normalized to baseline. Data are reported as ∆F/F = (Fmax – Fmin)/Fmin. Adequate response of the endogenous M3R was verified for each transfection, using carbachol at 100 µM and following the same procedure as for the peptide activation.
(§3) Concentration response curves were analyzed using GraphPad Prism 9.2.0. Potency was determined using a nonlinear regression model with variable slope, and statistical significance was determined using a one-way ANOVA followed by Dunnett’s multiple comparison test or a TTEST for comparison of two data sets (*p<0.05, **p<0.01, ***p<0.001, ****p<0.0001, ns, not significant).

[2] = biological target: T2, full-length mGPR116 (HEK293 clone 3C) (Mus musculus, UniProt G5E8Q8); assay: Calcium transient assay, full-length mGPR116 stably expressed in HEK293 (clone 3C); format: cell-based; settings: for activation of the mouse full-length receptor (in words): calcium flux assays, Figure 3F
T2 construct: expressed in transfected cells
T2 sequence (G5E8Q8 22-1348): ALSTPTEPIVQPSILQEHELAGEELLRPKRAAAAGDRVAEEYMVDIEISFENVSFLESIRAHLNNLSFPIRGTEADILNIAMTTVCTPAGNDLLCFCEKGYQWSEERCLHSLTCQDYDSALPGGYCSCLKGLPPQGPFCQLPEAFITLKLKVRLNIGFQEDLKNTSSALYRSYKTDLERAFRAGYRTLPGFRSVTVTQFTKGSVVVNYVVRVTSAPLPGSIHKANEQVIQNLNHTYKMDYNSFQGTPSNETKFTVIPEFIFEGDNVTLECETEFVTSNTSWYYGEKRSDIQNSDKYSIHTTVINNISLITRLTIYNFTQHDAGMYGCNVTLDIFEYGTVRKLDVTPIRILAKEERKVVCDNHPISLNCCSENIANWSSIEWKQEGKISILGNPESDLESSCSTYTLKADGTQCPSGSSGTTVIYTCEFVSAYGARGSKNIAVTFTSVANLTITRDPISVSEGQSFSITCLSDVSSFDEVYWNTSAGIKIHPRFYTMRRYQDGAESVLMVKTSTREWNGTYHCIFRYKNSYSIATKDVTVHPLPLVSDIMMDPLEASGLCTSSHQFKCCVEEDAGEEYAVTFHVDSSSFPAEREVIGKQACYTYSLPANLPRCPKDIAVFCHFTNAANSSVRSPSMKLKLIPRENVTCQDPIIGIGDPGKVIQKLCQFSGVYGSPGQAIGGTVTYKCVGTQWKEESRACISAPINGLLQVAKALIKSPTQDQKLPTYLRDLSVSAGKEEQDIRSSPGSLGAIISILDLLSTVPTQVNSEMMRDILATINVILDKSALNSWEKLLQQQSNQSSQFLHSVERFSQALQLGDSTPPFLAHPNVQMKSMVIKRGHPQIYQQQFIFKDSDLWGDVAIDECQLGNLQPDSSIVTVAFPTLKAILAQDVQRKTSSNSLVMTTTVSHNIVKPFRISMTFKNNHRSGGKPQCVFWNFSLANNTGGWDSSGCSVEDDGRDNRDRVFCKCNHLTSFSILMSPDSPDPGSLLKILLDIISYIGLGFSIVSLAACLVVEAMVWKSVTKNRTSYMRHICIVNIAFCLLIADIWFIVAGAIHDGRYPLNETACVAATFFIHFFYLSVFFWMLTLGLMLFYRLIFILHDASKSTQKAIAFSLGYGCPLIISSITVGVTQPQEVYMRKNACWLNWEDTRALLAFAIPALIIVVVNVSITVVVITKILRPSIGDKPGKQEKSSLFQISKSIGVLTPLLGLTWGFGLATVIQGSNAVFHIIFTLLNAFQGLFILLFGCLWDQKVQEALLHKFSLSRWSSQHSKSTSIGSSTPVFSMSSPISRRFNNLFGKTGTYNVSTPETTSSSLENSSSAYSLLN
Description: as §1, §2, §3

[3] = biological target: T3, mouse GPR116 full-length, V5 tagged, clone 1D8 (mouse) (UniProt G5E8Q8)
T3 sequence: T2 sequence (G5E8Q8 22-1348)

Molecule: CCCC[C@H](NC(=O)[C@H](CC(C)C)NC(=O)[C@@H](NC(=O)[C@H](CO)NC(=O)[C@H](C)NC(=O)[C@H](CO)NC(=O)[C@@H](N)[C@@H](C)O)[C@@H](C)CC)C(=O)N[C@@H](CO)C(=O)N1CCC[C@H]1C(=O)N[C@@H](CC(=O)O)C(=O)O [GAP10-POS3] (H-TSASIL[Nle]SPD-OH; N-terminus and C-terminus assumed)
activation of the human full-length receptor (in words) [1]: failed to activate | activation of the mouse full-length receptor (in words) [2]: failed to activate | EC50 ([2]; calcium transient assay, HEK293 clone 3C, Fig 3F, independent experiment n=1 (mean of quadruplicate), read-out: EC50 (uM) n=1): > 100 µM | EC50 ([2]; calcium transient assay, HEK293 clone 3C, Fig 3F, independent experiment n=2 (mean of quadruplicate), read-out: EC50 (uM) n=2): > 100 µM | EC50 ([2]; calcium transient assay, HEK293 clone 3C, Fig 3F, independent experiment n=3 (mean of quadruplicate), read-out: EC50 (uM) n=3): > 100 µM | EC50 ([2]; calcium transient assay, HEK293 clone 3C, Fig 3F, mean of n=2-3 independent experiments, read-out: EC50 (uM) mean): > 100 µM

Molecule: TSFSILASPD [GAP10-POS7]
activation of the human full-length receptor (in words) [1]: failed to activate | activation of the mouse full-length receptor (in words) [2]: failed to activate

B2: GAP14 (peptide)
peptide: TSFSIL[Nle]SPDSPDP
EC50 of receptor activation (calcium transients), HEK293 cells stably expressing the receptor [3]: 107 µM

B3: GAP10 (peptide)
peptide: TSFSIL[Nle]SPD
EC50 of receptor activation (calcium transients), HEK293 cells stably expressing the receptor [3]: 25 µM

The next lines start with the values.

activation of the human full-length receptor (in words) [1]: failed to activate | activation of the mouse full-length receptor (in words) [2]: failed to activate
Molecule: CCCC[C@H](NC(=O)[C@H](C)NC(=O)[C@@H](NC(=O)[C@H](CO)NC(=O)[C@H](Cc1ccccc1)NC(=O)[C@H](CO)NC(=O)[C@@H](N)[C@@H](C)O)[C@@H](C)CC)C(=O)N[C@@H](CO)C(=O)N1CCC[C@H]1C(=O)N[C@@H](CC(=O)O)C(=O)O [GAP10-POS6] (H-TSFSIA[Nle]SPD-OH; N-terminus and C-terminus assumed)

EC50 (uM) n=1 ([2]; calcium transient assay, HEK293 clone 3C, Fig 3F, independent experiment n=1 (mean of quadruplicate)): 16.0 µM | EC50 (uM) n=2 ([2]; calcium transient assay, HEK293 clone 3C, Fig 3F, independent experiment n=2 (mean of quadruplicate)): 8.6 µM | EC50 (uM) n=3 ([2]; calcium transient assay, HEK293 clone 3C, Fig 3F, independent experiment n=3 (mean of quadruplicate)): 6.9 µM
Molecule: TSFSILMSPD [GAP10]

EC50 of receptor activation (calcium transients), HEK293 cells stably expressing the receptor [3]: 17 µM
B1: GAP10-Pro1 (peptide)
peptide: PSFSIL[Nle]SPD
